Patent US20090105283A1, “3-HYDROQUINAZOLIN-4-ONE DERIVATIVES FOR USE AS STEAROYL CoA DESATURASE INHIBITORS” (priority 2007, published 2009)

Target: T1, stearoyl-CoA desaturase (SCD) (Rattus norvegicus, UniProt P07308)
T1 construct: The microsomes were quickly thawed and added to assay buffer so that a concentration of 0.4 mg/ml was achieved; from tissue
T1 sequence (P07308 1-358): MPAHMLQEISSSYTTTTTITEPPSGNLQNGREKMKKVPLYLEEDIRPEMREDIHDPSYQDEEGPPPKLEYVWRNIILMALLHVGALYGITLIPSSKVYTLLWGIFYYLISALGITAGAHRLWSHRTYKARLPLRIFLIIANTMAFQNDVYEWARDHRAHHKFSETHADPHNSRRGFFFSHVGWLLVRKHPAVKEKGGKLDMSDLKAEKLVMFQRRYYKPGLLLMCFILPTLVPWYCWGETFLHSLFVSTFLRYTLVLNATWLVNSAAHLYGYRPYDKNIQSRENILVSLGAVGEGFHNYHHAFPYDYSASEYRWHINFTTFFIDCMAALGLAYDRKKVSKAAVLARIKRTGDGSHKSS
Assay: SCD assay with rat liver microsomes ([3H]stearoyl CoA, adapted from Talamo and Bloch)
Type: biochemical
Conditions: [3H]stearoyl CoA substrate
Outline: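 Liver microsomes came from diet-induced male Sprague Dawley rats and were used at 0.2 mg/ml final. Assay buffer was Tris pH 7.2 with NADH, ATP, CoA, MgCl2 and 0.1% BSA. Compounds were preincubated 30 min, then reacted 45 min at room temperature with [3H]stearoyl-CoA; after TCA stop and Bio-Bead cleanup, supernatant radioactivity was counted by scintillation.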

[1] = Table 2 (Example 21, procedures of Example 20), rat liver microsomes
[2] = Table 1, rat liver microsomes 0.2 mg/ml assay final, 30 min preincubation, 45 min reaction, room temperature

Compound | IC50 [1] [nM] | IC50 [2] [nM]
O=C(CO)Nc1ccc2ncn(Cc3ccc(Cl)c(Cl)c3)c(=O)c2c1 [LXII, N-{3-[(3,4-dichlorophenyl)methyl]-4-oxo(3-hydroquinazolin-6-yl)}-2-hydroxyacetamide] | – | 230
CC(=O)NCC(=O)Nc1ccc2ncn(Cc3ccc(Cl)c(Cl)c3)c(=O)c2c1 [XIX, 2-(acetylamino)-N-{3-[(3,4-dichlorophenyl)methyl]-4-oxo(3-hydroquinazolin-6-yl)}acetamide] | – | 11700
N#Cc1cccc(COC(=O)Nc2ccc3ncn(Cc4ccc(Cl)c(Cl)c4)c(=O)c3c2)c1 [LXXX, N-{3-[(3,4-dichlorophenyl)methyl]-4-oxo(3-hydroquinazolin-6-yl)}[(3-cyanophenyl)methoxy]carboxamide] | – | 670
COc1ccc(Cn2cnc3ccc(NC(=O)COC(C)=O)cc3c2=O)cc1 [C, (N-{3-[(4-methoxyphenyl)methyl]-4-oxo-3-hydroquinazolin-6-yl}carbamoyl)methyl acetate] | – | 3500
O=C(CCc1ccccc1)Nc1ccc2ncn(Cc3ccc(Cl)c(Cl)c3)c(=O)c2c1 [II, N-{3-[(3,4-dichlorophenyl)methyl]-4-oxo(3-hydroquinazolin-6-yl)}-3-phenylpropanamide] | – | 2410

Other lines, results leading:

IC50 [1] [nM] | IC50 [2] [nM] | Compound
26000 | – | CC(=O)Nc1ccc2ncn(Cc3ccc(F)c(F)c3)c(=O)c2c1 [compound 18, N-(3-(3,4-difluorobenzyl)-4-oxo-3,4-dihydroquinazolin-6-yl)acetamide]
380 | – | O=C(Nc1ccc2ncn(C/C=C/COc3cc(Cl)ccc3Cl)c(=O)c2c1)OCc1ccccc1 [compound 103, (E)-benzyl 3-(4-(2,5-dichlorophenoxy)but-2-enyl)-4-oxo-3,4-dihydroquinazolin-6-ylcarbamate]
5200 | – | O=C(CO)Nc1ccc2ncn(CCNC(=O)c3ccccc3C(F)(F)F)c(=O)c2c1 [compound 69, N-(2-(6-(2-hydroxyacetamido)-4-oxoquinazolin-3(4H)-yl)ethyl)-2-(trifluoromethyl)benzamide]
3900 | – | CC(=O)Nc1ccc2ncn(Cc3ccc(Cl)c(Cl)c3)c(=O)c2c1 [compound 17, N-(3-(3,4-dichlorobenzyl)-4-oxo-3,4-dihydroquinazolin-6-yl)acetamide]
– | 2100 | CC(Oc1ccccc1Cl)C(=O)Nc1ccc2ncn(Cc3ccc(Cl)c(Cl)c3)c(=O)c2c1 (centres unmarked) [XXXIV, N-{3-[(3,4-dichlorophenyl)methyl]-4-oxo(3-hydroquinazolin-6-yl)}-2-(2-chlorophenoxy)propanamide]
1700 | – | CC(=O)OCC(=O)Nc1ccc2ncn(Cc3ccc(F)c(Cl)c3)c(=O)c2c1 [compound 13, 2-(3-(3-chloro-4-fluorobenzyl)-4-oxo-3,4-dihydroquinazolin-6-ylamino)-2-oxoethyl acetate]
